Source: the supplement of paper PMC7017272
± gives the standard deviation of the averaged measurements.

How the values were obtained:
Conditions in all cases: treatment time: 3 days
UT-SCC-24A [1] = assay: drug sensitivity score (DSS); higher = more sensitive
Procedure: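 HNSCC cell lines (500 cells/well, 384-well) were cultured on plastic, on top of (2D) or embedded (3D) in Matrigel or human leiomyoma matrix Myogel (500 ug/mL; Myogel 3D mixed with rat collagen I). Cells were treated for 3 days with 5 ten-fold concentrations of each drug, and viability was read by CellTiter-Glo. Suffixes _1/_2/_3 on drug names are replicates.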

UT-SCC-106A [2] = assay: maximal % inhibition of viability relative to DMSO; higher = stronger effect
Procedure: (§1)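 HNSCC cell lines (500 cells/well, 384-well) were cultured on plastic, on top of (2D) or embedded (3D) in Matrigel or human leiomyoma matrix Myogel (500 ug/mL; Myogel 3D mixed with rat collagen I). Cells were treated for 3 days with 5 ten-fold concentrations of each drug, and viability was read by CellTiter-Glo. Viability was normalised to DMSO and benzethonium chloride controls and fitted with the FIMM DSRT pipeline to give IC50 (nM), maximal % inhibition and DSS. Suffixes _1/_2/_3 are replicates. Only inhibition-mode (IC50) fits are kept.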

UT-SCC-14 [3] = assay: as above
Procedure: as §1

UT-SCC-24B = assay: as above
Procedure: as §1

UT-SCC-28 = assay: as above
Procedure: as §1

UT-SCC-40 = assay: as above
Procedure: as §1

UT-SCC-42A [4] = assay: as above
Procedure: as §1

UT-SCC-42B [5] = assay: as above
Procedure: as §1

UT-SCC-44 = assay: as above
Procedure: as §1

UT-SCC-73 = assay: as above
Procedure: as §1

UT-SCC-81 = assay: as above
Procedure: as §1

UT-SCC-8 = assay: as above
Procedure: as §1

UT-SCC-106A [6] = assay: drug sensitivity score (DSS); higher = more sensitive; extreme values may be limits of the assay
Outline: (§2)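 HPV-negative HNSCC cell lines were plated at 500 cells/well in 384-well plates, either on plastic, on wells coated with Matrigel or Myogel (500 µg/mL), or embedded in Matrigel or Myogel plus rat collagen I. Each compound was tested at five 10-fold concentrations over 3 days. Viability was measured by CellTiter-Glo 2.0 luminescence, and IC50, maximal inhibition and drug sensitivity score came from percent-inhibition dose–response curves fitted in the FIMM pipeline after normalisation to vehicle (0.1% DMSO) and cell-killing control wells.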

UT-SCC-14 [7] = assay: as above
Outline: as §2

UT-SCC-42A [8] = assay: as above
Outline: as §2

UT-SCC-42B [9] = assay: as above
Outline: as §2

UT-SCC-24A [10] = assay: relative IC50 (midpoint of the fitted curve; maximal inhibition may be below 50%); higher = less potent
Procedure: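 HNSCC cell lines (500 cells/well, 384-well) were cultured on plastic, on top of (2D) or embedded (3D) in Matrigel or human leiomyoma matrix Myogel (500 ug/mL; Myogel 3D mixed with rat collagen I). Cells were treated for 3 days with 5 ten-fold concentrations of each drug, and viability was read by CellTiter-Glo. Viability was normalised to DMSO (0% inhibition) and 100 uM benzethonium chloride (100% inhibition) controls and fitted with the FIMM DSRT pipeline to give IC50 (nM), maximal % inhibition and the drug sensitivity score (DSS). Suffixes _1/_2/_3 on drug names are replicates.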

[11] = culture condition: embedded in Matrigel
[12] = culture condition: embedded in Myogel + collagen I
[13] = culture condition: on top of Matrigel
[14] = culture condition: on top of Myogel
[15] = culture condition: plastic 2D (no matrix)

relative IC50 (UT-SCC-24A [10]; [13]): > 989 nM
relative IC50 (UT-SCC-24A [10]; [14]): > 989 nM
relative IC50 (UT-SCC-24A [10]; [15]): > 989 nM
Structure (SMILES): Cn1c(=O)n(-c2ccc(C(C)(C)C#N)cc2)c2c3cc(-c4cnc5ccccc5c4)ccc3ncc21 [Dactolisib]
drug sensitivity score (UT-SCC-24A [1]; [11]): 5.73 ± 5 DSS
drug sensitivity score (UT-SCC-24A [1]; [12]): 0.767 ± 1.3 DSS
drug sensitivity score (UT-SCC-24A [1]; [13]): 0 DSS
drug sensitivity score (UT-SCC-24A [1]; [14]): 0 DSS
drug sensitivity score (UT-SCC-24A [1]; [15]): 0 DSS
maximal % inhibition of viability (UT-SCC-106A [2]; [11]): 3.67 ± 0.31%
maximal % inhibition of viability (UT-SCC-106A [2]; [12]): 7.53 ± 8.4%
maximal % inhibition of viability (UT-SCC-106A [2]; [13]): 4.43 ± 3.8%
maximal % inhibition of viability (UT-SCC-106A [2]; [14]): 5.1 ± 8.8%
maximal % inhibition of viability (UT-SCC-106A [2]; [15]): 7.07 ± 3.2%
maximal % inhibition of viability (UT-SCC-14 [3]; [11]): 16.8 ± 19%
maximal % inhibition of viability (UT-SCC-14 [3]; [12]): 16.2 ± 15%
maximal % inhibition of viability (UT-SCC-14 [3]; [13]): 7.17 ± 5.8%
maximal % inhibition of viability (UT-SCC-14 [3]; [14]): 7.03 ± 7.9%
maximal % inhibition of viability (UT-SCC-14 [3]; [15]): 11.7 ± 10%
maximal % inhibition of viability (UT-SCC-24B; [11]): 77.4 ± 0.93%
maximal % inhibition of viability (UT-SCC-24B; [12]): 83.8 ± 1.4%
maximal % inhibition of viability (UT-SCC-24B; [13]): 78.6 ± 1.1%
maximal % inhibition of viability (UT-SCC-24B; [14]): 78.2 ± 1.9%
maximal % inhibition of viability (UT-SCC-24B; [15]): 76.2 ± 2.5%
maximal % inhibition of viability (UT-SCC-28; [11]): 19.7 ± 5%
maximal % inhibition of viability (UT-SCC-28; [12]): 9.5 ± 12%
maximal % inhibition of viability (UT-SCC-28; [13]): 13.3 ± 2.7%
maximal % inhibition of viability (UT-SCC-28; [15]): 8.33 ± 5.8%
maximal % inhibition of viability (UT-SCC-40; [11]): 18.2 ± 15%
maximal % inhibition of viability (UT-SCC-40; [12]): 8.93 ± 7.8%
maximal % inhibition of viability (UT-SCC-40; [13]): 9.4 ± 3.6%
maximal % inhibition of viability (UT-SCC-40; [14]): 7.2 ± 4.8%
maximal % inhibition of viability (UT-SCC-40; [15]): 2.4 ± 2.4%
maximal % inhibition of viability (UT-SCC-42A [4]; [11]): 0.767 ± 1.3%
maximal % inhibition of viability (UT-SCC-42A [4]; [12]): 6.03 ± 5.7%
maximal % inhibition of viability (UT-SCC-42A [4]; [13]): 9.57 ± 4.9%
maximal % inhibition of viability (UT-SCC-42A [4]; [14]): 4.37 ± 2.7%
maximal % inhibition of viability (UT-SCC-42A [4]; [15]): 8.8 ± 3.1%
maximal % inhibition of viability (UT-SCC-42B [5]; [11]): 12.9 ± 6%
maximal % inhibition of viability (UT-SCC-42B [5]; [13]): 10.9 ± 6.9%
maximal % inhibition of viability (UT-SCC-42B [5]; [14]): 6.13 ± 1.8%
maximal % inhibition of viability (UT-SCC-42B [5]; [15]): 1.67 ± 0.57%
maximal % inhibition of viability (UT-SCC-44; [11]): 12.5 ± 9.3%
maximal % inhibition of viability (UT-SCC-44; [12]): 13.2 ± 23%
maximal % inhibition of viability (UT-SCC-44; [13]): 13.7 ± 2.4%
maximal % inhibition of viability (UT-SCC-44; [14]): 12.8 ± 4.1%
maximal % inhibition of viability (UT-SCC-44; [15]): 16.8 ± 4.5%
maximal % inhibition of viability (UT-SCC-73; [11]): 11.8 ± 3.4%
maximal % inhibition of viability (UT-SCC-73; [12]): 40.1 ± 8.9%
maximal % inhibition of viability (UT-SCC-73; [13]): 9.33 ± 2.9%
maximal % inhibition of viability (UT-SCC-73; [14]): 8.23 ± 2.8%
maximal % inhibition of viability (UT-SCC-73; [15]): 1.63 ± 0.76%
maximal % inhibition of viability (UT-SCC-81; [11]): 40.7 ± 33%
maximal % inhibition of viability (UT-SCC-81; [12]): 7.33 ± 3.7%
maximal % inhibition of viability (UT-SCC-81; [13]): 5.13 ± 5.4%
maximal % inhibition of viability (UT-SCC-81; [14]): 11.2 ± 3.1%
maximal % inhibition of viability (UT-SCC-81; [15]): 6.5 ± 2.2%
maximal % inhibition of viability (UT-SCC-8; [11]): 8.63 ± 5.4%
maximal % inhibition of viability (UT-SCC-8; [12]): 18.3 ± 10%
maximal % inhibition of viability (UT-SCC-8; [13]): 13.2 ± 5.7%
maximal % inhibition of viability (UT-SCC-8; [14]): 9.7 ± 6.6%
maximal % inhibition of viability (UT-SCC-8; [15]): 6.9 ± 6.6%
drug sensitivity score (UT-SCC-106A [6]; [11]): 0 DSS
drug sensitivity score (UT-SCC-106A [6]; [12]): 0 DSS
drug sensitivity score (UT-SCC-106A [6]; [13]): 0 DSS
drug sensitivity score (UT-SCC-106A [6]; [14]): 0 DSS
drug sensitivity score (UT-SCC-106A [6]; [15]): 0.0333 ± 0.058 DSS
drug sensitivity score (UT-SCC-14 [7]; [11]): 3.03 ± 5.2 DSS
drug sensitivity score (UT-SCC-14 [7]; [12]): 0 DSS
drug sensitivity score (UT-SCC-14 [7]; [13]): 0 DSS
drug sensitivity score (UT-SCC-14 [7]; [14]): 0 DSS
drug sensitivity score (UT-SCC-14 [7]; [15]): 0.3 ± 0.52 DSS
drug sensitivity score (UT-SCC-42A [8]; [11]): 0 DSS
drug sensitivity score (UT-SCC-42A [8]; [12]): 0 DSS
drug sensitivity score (UT-SCC-42A [8]; [13]): 0 DSS
drug sensitivity score (UT-SCC-42A [8]; [14]): 0 DSS
drug sensitivity score (UT-SCC-42A [8]; [15]): 0 DSS
drug sensitivity score (UT-SCC-42B [9]; [11]): 0 DSS
drug sensitivity score (UT-SCC-42B [9]; [13]): 0 DSS
drug sensitivity score (UT-SCC-42B [9]; [14]): 0 DSS
drug sensitivity score (UT-SCC-42B [9]; [15]): 0 DSS
